Experimental data taken from ChEMBL document CHEMBL1201862, “PubChem BioAssay data set” (2004).
Blank lines part the entries; values can stand above or below the compound they belong to. Active and inactive are the calls of the source.

Columns and labels:
[1] = target: Dual specificity protein kinase CLK1 (Homo sapiens, UniProt P49759); assay: inhibition of human CLK1 activity – biochemical, cherry-picked samples, selectivity assay for Dyrk1A inhibitor project, dose response (AID 588811)
[2] = tested on: Streptococcus sp. 'group A'; assay: Streptococcus pyogenes SK(-)GAS viability under kanamycin – luminescence, BacTiterGlo, confirmation, counter-screen for streptokinase expression inhibitor project, dose response (AID 1900); format: functional, organism-based
Streptococcus = assay: GAS UMAA2166 growth inhibition – luminescence, BacTiterGlo, counter-screen for streptokinase expression inhibitor project, dose response (AID 1915); format: functional, organism-based;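 further: potency for reduction of bacterial viability or growth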
[3] = Luminescence Cell-Based Dose Retest to Confirm Inhibitors of Cancer Stem Cells. [Related pubchem assays (depositor defined):AID2717, AID2721]; format: functional; conditions: Homo sapiens
[4] = viability loss of HMLE_sh_eGFP cells – cell-based, luminescence, counter-screen for HMLE_sh_ECad selective toxicity project, dose response (AID 463074); format: functional, Homo sapiens;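 further: HMLE human mammary epithelial cells expressing control shRNA against eGFP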
[5] = target: Dual specificity tyrosine-phosphorylation-regulated kinase 1A (Rattus norvegicus, UniProt Q63470); format: biochemical, Homo sapiens
[6] = target: T1, Rac GTPase-activating protein 1 (Homo sapiens, UniProt Q9H0H5); assay: blockers of MgcRacGAP-driven Rac1 GTP hydrolysis – biochemical, ADP Hunter fluorescence, primary and confirmatory, confirmation (AID 624330); format: functional
T1 sequence (Q9H0H5 whole entry): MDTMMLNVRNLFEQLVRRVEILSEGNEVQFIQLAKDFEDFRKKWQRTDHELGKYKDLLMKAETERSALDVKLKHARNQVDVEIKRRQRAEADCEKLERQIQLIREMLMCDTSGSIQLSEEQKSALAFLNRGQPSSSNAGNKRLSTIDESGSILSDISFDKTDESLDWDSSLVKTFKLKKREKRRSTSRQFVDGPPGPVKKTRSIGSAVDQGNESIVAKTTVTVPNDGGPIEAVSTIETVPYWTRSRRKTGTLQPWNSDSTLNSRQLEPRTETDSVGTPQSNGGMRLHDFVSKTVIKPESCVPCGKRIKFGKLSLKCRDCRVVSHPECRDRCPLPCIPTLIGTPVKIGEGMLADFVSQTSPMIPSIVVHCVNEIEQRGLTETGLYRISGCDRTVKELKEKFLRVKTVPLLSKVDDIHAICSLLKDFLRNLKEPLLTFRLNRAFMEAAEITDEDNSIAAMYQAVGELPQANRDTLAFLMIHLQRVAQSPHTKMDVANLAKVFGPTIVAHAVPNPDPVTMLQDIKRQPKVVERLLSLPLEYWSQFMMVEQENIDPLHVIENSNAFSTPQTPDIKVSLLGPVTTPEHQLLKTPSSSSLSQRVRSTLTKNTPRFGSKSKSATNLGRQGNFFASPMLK

[7] = NIH-3T3 fibroblast cytotoxicity, dose response, cytotoxicity control, cell-based, fluorescence, Alamar Blue, secondary assay (AID 2327); format: functional;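 further: NIH-3T3 mouse fibroblasts cultured with fluconazole at 8 µg/mL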
[8] = fluconazole-exposed Candida albicans growth modulators – fluorescence, retest, confirmation (AID 2467); format: functional, cell-based
[9] = target: T2, Serine/threonine-protein phosphatase (Candida dubliniensis (strain CD36 / CBS 7987 / NCPF 3949 / NRRLY-17841) (Yeast), UniProt B9W6M3); assay: blockers of CaCl2-induced CDRE-lacZ signaling – S. cerevisiae, luminescence, secondary, dose response (AID 2388); format: functional, cell-based;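 further: yeast reporter cells carrying a calcineurin-responsive lacZ construct stimulated with calcium chloride; luminescent beta-galactosidase reporter signal in whole cells rather than isolated phosphatase activity; potency for inhibition where a drop in reporter signal means calcineurin blockade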
T2 sequence (B9W6M3 whole entry): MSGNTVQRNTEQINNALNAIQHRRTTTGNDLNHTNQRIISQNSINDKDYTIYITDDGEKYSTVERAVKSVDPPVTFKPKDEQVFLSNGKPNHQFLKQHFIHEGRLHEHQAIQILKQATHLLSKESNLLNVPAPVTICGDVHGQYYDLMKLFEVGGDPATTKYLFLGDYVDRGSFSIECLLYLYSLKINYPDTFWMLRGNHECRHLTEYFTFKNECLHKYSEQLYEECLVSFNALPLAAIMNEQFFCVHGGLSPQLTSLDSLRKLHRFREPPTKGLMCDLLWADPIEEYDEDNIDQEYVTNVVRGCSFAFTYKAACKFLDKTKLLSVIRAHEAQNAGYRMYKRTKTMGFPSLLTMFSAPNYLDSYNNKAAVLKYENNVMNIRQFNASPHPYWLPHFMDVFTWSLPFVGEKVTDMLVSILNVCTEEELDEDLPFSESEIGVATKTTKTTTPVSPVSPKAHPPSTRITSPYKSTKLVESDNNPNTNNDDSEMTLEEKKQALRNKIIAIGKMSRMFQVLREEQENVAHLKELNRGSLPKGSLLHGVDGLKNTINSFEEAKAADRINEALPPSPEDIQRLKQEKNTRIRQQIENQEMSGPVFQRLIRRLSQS

[10] = target: Heat shock protein HSP 90-alpha (Homo sapiens, UniProt P07900); format: functional, organism-based
[11] = target: T2, Serine/threonine-protein phosphatase; assay: Fluorescence Cell-Based Secondary Assay to Identify Inhibitors of Calcineurin. [Related pubchem assays (depositor defined):AID1979, AID2007]; format: functional
[12] = target: T3, Short transient receptor potential channel 4 (Mus musculus, UniProt Q9QUQ5); assay: calcium entry via TRPC4 opening agents – cell-based, HEK293 TRPC4/mu-opioid, Fluo-4 calcium, dose response (AID 434937); format: functional
T3 sequence (Q9QUQ5 whole entry): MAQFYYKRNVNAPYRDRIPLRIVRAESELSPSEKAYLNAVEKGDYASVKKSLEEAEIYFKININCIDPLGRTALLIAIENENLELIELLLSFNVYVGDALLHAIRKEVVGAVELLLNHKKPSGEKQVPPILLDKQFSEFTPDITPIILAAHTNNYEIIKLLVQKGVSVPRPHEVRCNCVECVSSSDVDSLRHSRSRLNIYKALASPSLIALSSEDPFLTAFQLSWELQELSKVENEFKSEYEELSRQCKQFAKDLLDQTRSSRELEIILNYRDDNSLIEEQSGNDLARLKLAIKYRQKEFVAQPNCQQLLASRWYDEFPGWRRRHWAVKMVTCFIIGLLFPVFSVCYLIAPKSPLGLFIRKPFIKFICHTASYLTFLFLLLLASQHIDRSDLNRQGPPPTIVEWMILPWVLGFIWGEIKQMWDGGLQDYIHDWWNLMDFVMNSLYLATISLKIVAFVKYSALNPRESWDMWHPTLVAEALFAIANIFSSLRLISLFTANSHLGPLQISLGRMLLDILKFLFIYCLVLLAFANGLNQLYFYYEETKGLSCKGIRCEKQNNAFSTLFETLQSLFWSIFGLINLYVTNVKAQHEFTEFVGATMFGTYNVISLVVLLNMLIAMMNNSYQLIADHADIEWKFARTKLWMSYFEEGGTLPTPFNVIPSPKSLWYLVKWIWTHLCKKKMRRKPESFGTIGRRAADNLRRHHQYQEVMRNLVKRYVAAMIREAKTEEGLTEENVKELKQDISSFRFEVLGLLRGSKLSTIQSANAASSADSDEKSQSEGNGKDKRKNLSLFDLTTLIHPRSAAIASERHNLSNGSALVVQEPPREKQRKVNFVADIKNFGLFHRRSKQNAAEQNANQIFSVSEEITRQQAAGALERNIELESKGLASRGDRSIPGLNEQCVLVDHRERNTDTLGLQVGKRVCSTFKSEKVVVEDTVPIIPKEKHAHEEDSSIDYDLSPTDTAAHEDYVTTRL

[13] = target: Delta-type opioid receptor (Homo sapiens, UniProt P41143); assay: Counterscreen for agonists of heterodimerization of the mu 1 (OPRM1) and delta 1 (OPRD1) opioid receptors: Luminescence-based cell-based high throughput dose response assay to identify agonists of OPRD1 homodimerization. [Related pubchem assays (depositor defined):AID504326, AID504355, AID504692, AID504904, AID504905]; format: functional
Mu-type opioid receptor = Mu-type opioid receptor (Homo sapiens, UniProt P35372); assay: Counterscreen for agonists of heterodimerization of the mu 1 (OPRM1) and delta 1 (OPRD1) opioid receptors: Luminescence-based cell-based high throughput dose response assay to identify agonists of OPRM1 homodimerization.; format: functional;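 further: U2OS cells expressing OPRM1 and beta-arrestin as split beta-galactosidase partners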
[14] = target: Opioid receptors; mu & delta (Homo sapiens, UniProt P41143+P35372); assay: OPRM1-OPRD1 heterodimer agonist potency – cell-based, luminescence, dose response (AID 588407); format: functional
[15] = target: 5-hydroxytryptamine receptor 5A (Homo sapiens, UniProt P47898); assay: Counterscreen for agonists of OPRM1-OPRD1 heterodimerization: luminescence-based cell-based high throughput dose response assay to identify agonists of 5-hydroxytryptamine (serotonin) 5A receptor (HTR5A). [Related pubchem assays (depositor defined):AID504326, AID504355, AID504692, AID504904, AID504905]; format: functional
Cytochrome P450 2C19 = Cytochrome P450 2C19 (Homo sapiens, UniProt P33261); assay: Cytochrome panel assay with activity outcomes. Panel member name: p450-cyp2c19 Compounds with AC50 equal or less than 10 uM are considered active; format: functional
Cytochrome P450 3A4 = Cytochrome P450 3A4 (Homo sapiens, UniProt P08684);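 further: CYP3A4 tested as one member of a cytochrome P450 panel screen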
Cytochrome P450 2D6 = Cytochrome P450 2D6 (Homo sapiens, UniProt P10635);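 further: CYP2D6 member of a cytochrome P450 panel assay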
Cytochrome P450 1A2 = target: T4, Cytochrome P450 1A2 (Homo sapiens, UniProt P05177);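 further: PubChem cytochrome P450 panel assay, CYP1A2 panel member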
T4 sequence (P05177 whole entry): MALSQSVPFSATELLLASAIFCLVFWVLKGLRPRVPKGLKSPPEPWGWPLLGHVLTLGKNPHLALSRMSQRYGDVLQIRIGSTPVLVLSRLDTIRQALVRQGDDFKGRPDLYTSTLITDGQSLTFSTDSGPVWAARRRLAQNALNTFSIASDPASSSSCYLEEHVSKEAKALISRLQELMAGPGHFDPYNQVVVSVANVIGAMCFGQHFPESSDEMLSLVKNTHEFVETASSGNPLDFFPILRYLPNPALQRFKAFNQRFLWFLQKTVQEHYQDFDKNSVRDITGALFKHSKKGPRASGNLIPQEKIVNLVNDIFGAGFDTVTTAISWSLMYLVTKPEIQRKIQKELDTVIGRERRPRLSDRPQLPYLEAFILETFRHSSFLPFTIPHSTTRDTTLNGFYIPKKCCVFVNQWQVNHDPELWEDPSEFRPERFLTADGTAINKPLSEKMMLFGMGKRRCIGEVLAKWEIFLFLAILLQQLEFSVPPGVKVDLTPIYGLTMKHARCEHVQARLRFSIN

Cytochrome P450 2C9 = Cytochrome P450 2C9 (Homo sapiens, UniProt P11712)
[16] = Luminescence Cell-Based/Microorganism Confirmation at Dose of Inhibitors of Trypanosoma cruzi Infection. [Related pubchem assays: 1885, 1968 ]; format: functional
[17] = Trypanosoma cruzi growth suppression in host cells – NIH3T3 host cells, beta-gal luminescence, confirmation (AID 2044); format: functional, cell-based;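 further: intracellular parasites grown in NIH/3T3 mouse fibroblasts as host cells; luminescent beta-galactosidase reporter signal from transgenic T. cruzi replicating inside host cells; inhibitors lower the luminescence signal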
[18] = Luminescence Cell-Based Secondary HTS screen to identify cytotoxic compounds of NIH3T3 cells. [Related pubchem assays: 1885, 1968 ]; format: functional
[19] = NIH3T3 cell viability loss – ATP luminescence, mouse fibroblasts, counter-screen, dose response (AID 2010); format: functional, cell-based;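 further: cells exposed to compound for about 90 hours before reading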
[20] = T. cruzi infection blockers in NIH3T3 cells – beta-gal luminescence, NIH3T3 host cells, confirmation (AID 2630); format: functional, cell-based; conditions: Mus musculus

Sequence of Delta-type opioid receptor (P41143 whole entry): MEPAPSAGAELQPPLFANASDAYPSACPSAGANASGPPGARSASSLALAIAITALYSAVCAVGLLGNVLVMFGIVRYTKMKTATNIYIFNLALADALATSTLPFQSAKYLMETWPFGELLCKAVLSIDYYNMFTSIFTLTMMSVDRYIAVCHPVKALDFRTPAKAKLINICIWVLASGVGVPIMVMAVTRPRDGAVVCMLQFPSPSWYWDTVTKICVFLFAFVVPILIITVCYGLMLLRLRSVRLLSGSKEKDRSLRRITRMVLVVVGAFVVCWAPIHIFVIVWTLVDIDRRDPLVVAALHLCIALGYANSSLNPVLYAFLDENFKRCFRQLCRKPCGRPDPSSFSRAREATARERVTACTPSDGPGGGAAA
Sequence of Cytochrome P450 2D6 (P10635 whole entry): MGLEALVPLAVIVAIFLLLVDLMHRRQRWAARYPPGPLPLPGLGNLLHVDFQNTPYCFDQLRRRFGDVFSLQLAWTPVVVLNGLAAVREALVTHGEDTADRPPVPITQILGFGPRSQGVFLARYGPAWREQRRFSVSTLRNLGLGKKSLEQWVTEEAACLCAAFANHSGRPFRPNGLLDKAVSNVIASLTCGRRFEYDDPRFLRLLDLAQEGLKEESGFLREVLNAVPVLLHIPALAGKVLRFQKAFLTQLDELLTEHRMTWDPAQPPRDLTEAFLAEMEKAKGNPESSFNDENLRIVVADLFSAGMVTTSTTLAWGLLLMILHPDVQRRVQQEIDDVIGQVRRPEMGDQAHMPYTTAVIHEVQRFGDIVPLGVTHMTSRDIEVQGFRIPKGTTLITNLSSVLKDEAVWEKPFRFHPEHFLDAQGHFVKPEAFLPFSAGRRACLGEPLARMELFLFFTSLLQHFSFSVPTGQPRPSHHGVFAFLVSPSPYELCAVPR
Sequence of Cytochrome P450 2C9 (P11712 whole entry): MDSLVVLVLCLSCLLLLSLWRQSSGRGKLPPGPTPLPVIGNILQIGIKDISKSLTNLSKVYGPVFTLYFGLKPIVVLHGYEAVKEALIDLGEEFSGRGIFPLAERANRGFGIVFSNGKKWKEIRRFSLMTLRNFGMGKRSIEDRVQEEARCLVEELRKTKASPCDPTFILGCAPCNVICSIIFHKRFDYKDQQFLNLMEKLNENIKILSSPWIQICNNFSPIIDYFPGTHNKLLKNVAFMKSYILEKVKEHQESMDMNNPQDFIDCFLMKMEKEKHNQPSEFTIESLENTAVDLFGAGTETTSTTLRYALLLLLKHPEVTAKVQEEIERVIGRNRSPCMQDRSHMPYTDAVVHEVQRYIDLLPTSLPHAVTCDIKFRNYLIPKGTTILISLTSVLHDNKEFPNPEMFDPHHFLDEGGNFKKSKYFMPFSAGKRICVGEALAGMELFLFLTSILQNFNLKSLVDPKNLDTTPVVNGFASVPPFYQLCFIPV
Sequence of Cytochrome P450 2C19 (P33261 whole entry): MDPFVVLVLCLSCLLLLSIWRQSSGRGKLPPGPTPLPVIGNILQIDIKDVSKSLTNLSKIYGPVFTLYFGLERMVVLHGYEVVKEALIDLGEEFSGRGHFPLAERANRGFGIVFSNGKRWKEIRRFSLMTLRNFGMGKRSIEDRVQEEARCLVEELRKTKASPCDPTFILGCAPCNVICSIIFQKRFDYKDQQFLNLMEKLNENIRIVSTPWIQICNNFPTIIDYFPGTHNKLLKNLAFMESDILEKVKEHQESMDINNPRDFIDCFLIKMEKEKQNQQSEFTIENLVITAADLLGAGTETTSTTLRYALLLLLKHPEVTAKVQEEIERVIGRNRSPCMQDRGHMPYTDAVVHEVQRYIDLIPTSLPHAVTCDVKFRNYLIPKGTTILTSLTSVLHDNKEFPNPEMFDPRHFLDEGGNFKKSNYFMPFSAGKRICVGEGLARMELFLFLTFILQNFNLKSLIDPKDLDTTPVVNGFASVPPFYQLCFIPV
Sequence of Mu-type opioid receptor (P35372 whole entry): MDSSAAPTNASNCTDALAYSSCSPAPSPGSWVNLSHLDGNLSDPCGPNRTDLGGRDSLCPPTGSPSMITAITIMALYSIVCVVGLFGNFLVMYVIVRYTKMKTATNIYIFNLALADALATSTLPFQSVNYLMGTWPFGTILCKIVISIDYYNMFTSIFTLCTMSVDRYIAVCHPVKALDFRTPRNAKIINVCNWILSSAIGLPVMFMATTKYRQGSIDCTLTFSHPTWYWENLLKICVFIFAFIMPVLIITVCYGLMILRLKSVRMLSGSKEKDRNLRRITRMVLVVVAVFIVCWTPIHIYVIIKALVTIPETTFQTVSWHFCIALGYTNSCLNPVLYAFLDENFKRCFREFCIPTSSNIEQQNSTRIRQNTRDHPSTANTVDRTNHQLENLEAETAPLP
Sequence of Cytochrome P450 3A4 (P08684 whole entry): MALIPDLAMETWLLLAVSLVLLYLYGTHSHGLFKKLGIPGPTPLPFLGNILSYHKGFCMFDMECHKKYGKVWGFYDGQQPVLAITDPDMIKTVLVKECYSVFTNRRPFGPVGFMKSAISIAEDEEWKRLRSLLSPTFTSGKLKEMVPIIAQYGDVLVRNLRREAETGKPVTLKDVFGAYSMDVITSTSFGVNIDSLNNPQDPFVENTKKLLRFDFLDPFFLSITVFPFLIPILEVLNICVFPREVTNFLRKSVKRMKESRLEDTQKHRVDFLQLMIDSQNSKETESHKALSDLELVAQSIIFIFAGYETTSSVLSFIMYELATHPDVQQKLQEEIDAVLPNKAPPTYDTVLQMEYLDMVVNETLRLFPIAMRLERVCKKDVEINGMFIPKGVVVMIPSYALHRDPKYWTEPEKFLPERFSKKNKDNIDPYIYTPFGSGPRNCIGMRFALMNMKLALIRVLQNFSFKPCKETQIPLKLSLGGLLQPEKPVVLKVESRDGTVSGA
Sequence of Dual specificity protein kinase CLK1 (P49759 whole entry): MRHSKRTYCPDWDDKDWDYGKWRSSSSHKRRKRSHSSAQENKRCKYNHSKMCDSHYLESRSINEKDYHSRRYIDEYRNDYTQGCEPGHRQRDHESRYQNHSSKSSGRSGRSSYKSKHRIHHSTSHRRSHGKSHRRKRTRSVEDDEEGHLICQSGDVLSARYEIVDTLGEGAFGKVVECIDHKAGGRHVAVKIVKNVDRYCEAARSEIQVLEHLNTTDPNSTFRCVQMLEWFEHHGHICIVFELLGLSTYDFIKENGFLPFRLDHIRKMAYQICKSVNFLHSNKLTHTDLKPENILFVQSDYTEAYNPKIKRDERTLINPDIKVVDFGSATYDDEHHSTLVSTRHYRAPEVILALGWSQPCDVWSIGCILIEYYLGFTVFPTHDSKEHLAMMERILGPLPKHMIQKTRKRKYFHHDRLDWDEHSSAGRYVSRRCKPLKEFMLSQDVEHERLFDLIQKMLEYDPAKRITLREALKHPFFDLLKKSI
Sequence of 5-hydroxytryptamine receptor 5A (P47898 whole entry): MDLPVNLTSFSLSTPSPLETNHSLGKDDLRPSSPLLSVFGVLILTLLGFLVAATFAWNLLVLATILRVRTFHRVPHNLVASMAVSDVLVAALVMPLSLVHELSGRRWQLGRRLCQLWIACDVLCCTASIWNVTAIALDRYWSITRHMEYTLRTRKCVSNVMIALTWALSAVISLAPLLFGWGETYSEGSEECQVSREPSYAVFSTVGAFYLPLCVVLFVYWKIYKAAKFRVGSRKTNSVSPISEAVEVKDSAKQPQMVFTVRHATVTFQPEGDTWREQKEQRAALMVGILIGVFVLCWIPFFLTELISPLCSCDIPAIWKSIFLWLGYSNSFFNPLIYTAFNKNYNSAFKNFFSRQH

AC50 [1]: 0.0161 µM (active)
SMILES: Cc1ccsc1CN(C)c1ncnc2ccc(-c3ccc(CO)o3)cc12

SMILES: CCN(c1ccccc1)S(=O)(=O)c1ccc(C(=O)Nc2nnc(-c3ccco3)o2)cc1
EC50 [2]: 1.61 µM (active)
EC50 (Streptococcus): 5.63 µM (active)
AC50 [3]: 2.63 µM (active)
AC50 [4]: 32.4 µM (active)

AC50 [5]: 6.71 µM (active)
IC50 [6]: 22.1 µM (active)
SMILES: Oc1ccc(-c2csc(NCc3ccco3)n2)cc1

SMILES: O=C(NNC1=C(C(=O)C(F)(F)F)CCC1)c1ccc(Cl)cc1
EC50 [7]: 23.5 µM (active)
EC50 [8]: 0.126 µM (active)
EC50 [9]: > 180 µM (inactive)
AC50 [3]: 2.75 µM (active)
AC50 [10]: 3.37 µM (active)
EC50 [11]: 13.5 µM (active)

SMILES: COc1ccc(C2Nc3ccccc3C(=O)N2Cc2ccco2)cc1COc1ccc(NC(C)=O)cc1 (centres undefined)
EC50 [12]: 0.149 µM (active)
EC50 [13]: 0.0173 µM (active)
EC50 (Mu-type opioid receptor): > 92.5 µM (inactive)
EC50 [14]: > 0.01406 µM
EC50 [15]: > 92.5 µM (inactive)

AC50 (Cytochrome P450 2C19): inconclusive
AC50 (Cytochrome P450 3A4): 3.98 µM (inconclusive)
AC50 (Cytochrome P450 2D6): inconclusive
AC50 (Cytochrome P450 1A2): inconclusive
AC50 (Cytochrome P450 2C9): inconclusive
SMILES: FC(F)(F)c1cc(CN2CC[C@@]3(CCCNC3)C2)cc(C(F)(F)F)c1

SMILES: CCn1ncc(CN2CCCC(C(=O)c3cccc(OC(C)C)c3)C2)c1C (centres undefined)
EC50 [16]: 0.062 µM (active)
EC50 [17]: < 0.1 µM (active)
EC50 [18]: > 195 µM (not active)
EC50 [19]: > 60 µM (inconclusive)
EC50 [20]: 0.062 µM (active)
EC50 (cells): 0.032 µM (active)
